Reference: PMC3545278 (Journal of pharmaceutical and biomedical analysis, 2012)
Structures can show the parent of a compound that is named as a salt. Where two headings read alike, the source gives them in different places.

How the values were obtained:
[1] = Rapid equilibrium dialysis; assay type: in vitro ADME, mouse; conditions: for fraction unbound at 4 h, 10 μM: mouse, plasma, pH 7.4
[2] = Ultrafiltration; assay type: in vitro ADME, mouse; conditions: for recovery at 20 min, 10 μM / fraction unbound at 20 min, 10 μM: mouse; for recovery at 20 min, 10 μM / % Recovery from plasma / %PPB (UF): mouse plasma; for fraction unbound at 20 min, 10 μM: plasma; for % Recovery from plasma / %PPB (UF): 10 μM, mean ± SEM, n=3; for % Recovery from plasma: UF mass balance; for %PPB (UF): mass balance
[3] = Plasma stability, 37°C for 20 min, human plasma; assay type: in vitro ADME; conditions: 5% CO2, 20 min, mean ± SEM
[4] = human, cited from earlier work
[5] = Ultrafiltration; conditions: human; for recovery at 20 min, 10 μM: human plasma; for fraction unbound at 20 min, 10 μM: plasma
[6] = Rapid equilibrium dialysis; assay type: in vitro ADME; conditions: human, plasma, pH 7.4
[7] = in vitro; conditions: human
[8] = longer than 20 min; cited from earlier work
[9] = Plasma stability as stated in text, species not specified; assay type: in vitro ADME; conditions: 20 minute incubation at 37°C

Row | Compound | fraction unbound at 4 h, 10 μM [1] | recovery at 20 min, 10 μM [2] | fraction unbound at 20 min, 10 μM [2] | %Stability [3] | recovery at 20 min, 10 μM [5] | fraction unbound at 20 min, 10 μM [5] | fraction unbound at 4 h, 10 μM [6] | other results
1 | CS(=O)(=O)c1ccc(C(=O)Nc2ccc(Cl)c(-c3ccccn3)c2)c(Cl)c1 [Vismodegib] | 0.009 | 94.3 ± 3.7% | 0.025 | – | – | – | – | –
2 | C[C@]12CCC(=O)C=C1CC[C@@H]1[C@@H]2[C@@H](O)C[C@@]2(C)[C@H]1CC[C@]2(O)C(=O)CO [Hydrocortisone] | 0.412 | 102 ± 4% | 0.519 | 98.5±1.1% | 104 ± 3.3% | 0.368 | 0.279 | %PPB (Literature) ([4]; ref 8): 65%; %PPB (Literature) ([4]; ref 23): 80%
3 | CC(=O)Nc1ccc(O)cc1 [Acetaminophen] | 0.611 | 97.2 ± 2.5% | 0.701 | 98.6±2.6% | 102.6 ± 0.9% | 0.733 | 0.79 | %PPB (Literature) ([4]; ref 20): 24±7 [20] %
4 | OC(CNc1ccccc1)Cn1c2ccc(Br)cc2c2cc(Br)ccc21 (stereo not drawn) [P7C3] | – | – | – | – | – | – | – | % Recovery from plasma [2]: 100.0±9.4%
5 | Nc1ccc(S(=O)(=O)Nc2nccs2)cc1 [Sulfathiazole] | 0.418 | 108 ± 2.1% | 0.402 | – | – | – | – | –
6 | COc1cc(NS(=O)(=O)c2ccc(N)cc2)nc(OC)n1 [Sulfadimethoxine] | 0.044 | 109 ± 1.1% | 0.04 | – | – | – | – | –
7 | Nc1ccc(S(=O)(=O)Nc2ncccn2)cc1 [Sulfadiazine] | 0.47 | 108 ± 2% | 0.403 | – | – | – | – | –
8 | O=C(CCCCCCC(=O)Nc1ccccc1)NO [Vorinostat] | 0.536 | 98.7 ± 0.6% | 0.622 | 101.1±1.9% | 100 ± 2.1% | 0.396 | 0.241 | –
9 | CC(C)NCC(O)COc1cccc2ccccc12 (stereo not drawn) [Propranolol HCl] | 0.264 | 104 ± 7.6% | 0.326 | 98.7±1.2% | 100 ± 1.6% | 0.328 | 0.166 | %PPB (Literature) ([4]; ref 8): 65–70 [8] %
10 | CC(C)(C)NCC(O)c1cc(O)cc(O)c1 (stereo not drawn) [Terbutaline] | 0.638 | 99.6 ± 8.4% | 0.81 | 106.5±3.3% | 104 ± 2.1% | 0.819 | 0.627 | %PPB (Literature) ([4]; ref 21): 20%; %PPB (Literature) ([4]; ref 23): 25%
11 | Cc1nnc(NS(=O)(=O)c2ccc(N)cc2)s1 [Sulfamethiazole] | 0.353 | 104 ± 1.2% | 0.348 | 101.9±0.4% | 99.4 ± 1.7% | 0.184 | 0.108 | %PPB (Literature) ([4]; ref 22): 85–90 [22] %
12 | CCCCNC(=O)NS(=O)(=O)c1ccc(C)cc1 [Tolbutamide] | – | 106 ± 3.1% | – | 102.2±0.8% | 97.4 ± 0.2% | – | – | –
13 | COc1ccc2c(c1)c(CC(=O)O)c(C)n2C(=O)c1ccc(Cl)cc1 [Indomethacin] | 0.013 | 99 ± 9.7% | 0.011 | 111.0±8.8% | 89.7 ± 7.2% | 0.004 | 0.002 | %PPB (Literature) ([4]; ref 23): 99 [23] %
14 | CC(=O)O[C@H]1C(=O)[C@@]2(C)[C@H]([C@H](OC(=O)c3ccccc3)[C@]3(O)C[C@H](OC(=O)[C@H](O)[C@@H](NC(=O)c4ccccc4)c4ccccc4)C(C)=C1C3(C)C)[C@]1(OC(C)=O)CO[C@@H]1C[C@@H]2O [Paclitaxel] | 0.024 | 90.8 ± 3.2% | 0.046 | 104.8±2.0% | 87.6 ± 2.2% | 0.132 | 0.03 | %PPB (Literature) ([4]; ref 23): 88 [23] %
15 | CC(=O)CC(c1ccccc1)c1c(O)c2ccccc2oc1=O (stereo not drawn) [Warfarin] | – | 99.8 ± 3.9% | – | 100.4±4.5% | – | – | – | recovery at 20 min, 10 μM [7]: 94.2 ± 3.8%
16 | Cc1ccnc(NS(=O)(=O)c2ccc(N)cc2)n1 [Sulfamerazine] | 0.195 | 107 ± 1.8% | 0.184 | – | – | – | – | –
17 | O=C(Nc1cccc2cccnc12)c1ccc(N2C(=O)[C@@H]3[C@H](C2=O)[C@@H]2C=C[C@H]3C2)cc1 [IWR1] | – | – | – | – | – | – | – | stability in plasma over longer periods of time [8]: known instability; stability in plasma [9]: stable; % Recovery from plasma [2]: 81.1±2.1%; %PPB (UF) [2]: 95.5±0.9%
18 | CC[C@]1(O)C[C@@H]2CN(CCc3c([nH]c4ccccc34)[C@@](C(=O)OC)(c3cc4c(cc3OC)N(C)[C@H]3[C@@](O)(C(=O)OC)[C@H](OC(C)=O)[C@]5(CC)C=CCN6CC[C@]43[C@@H]65)C2)C1 [Vinblastine] | 0.073 | 87.5 ± 2.5% | 0.174 | 97.5±3.1% | 79.1 ± 2.1% | – | 0.113 | –
19 | CC[C@H](C)C(=O)O[C@H]1C[C@@H](C)C=C2C=C[C@H](C)[C@H](CC[C@@H]3C[C@@H](O)CC(=O)O3)[C@H]21 [Lovastatin] | 0.084 | 82.1 ± 8.8% | 0.029 | 96.2±5.1% | 87.6 ± 3.6% | 0.026 | 0.004 | %PPB (Literature) ([4]; ref 21): >95 [21] %
20 | O=S(=O)(Nc1ccccc1)c1ccc(NC(=S)Nc2ccccc2)cc1 [LED209E] | – | – | – | – | – | – | – | %PPB (RED) ([1]; mouse plasma, 10 μM, 4 hours at 37°C, mean ± SEM, n=3): 99.2±0.1%; % Recovery from plasma [2]: 101.0±1.5%; %PPB (UF) [2]: 99.3±0.1%
